In patent US11203633B2, “Polynucleotides encoding antibodies or antigen binding fragments thereof that bind pseudomonas perv” (priority 2011, dated 2021):

Assays:
[1] = tested on: P. aeruginosa strains 6077, 6206, 6294; experiment: Thermal injury model in mice, survival; assay type: in vivo, Pseudomonas aeruginosa; conditions: 6077 2×10^5 CFU, FIG. 8E
Protocol: (§1) Antibodies or PBS were administered 24 hours before infection in each model. P. aeruginosa acute pneumonia, keratitis, and thermal injury infection models were performed as described (DiGiandomenico, A., et al., Proc Natl Acad Sci USA 104, 4624-4629 (2007)), with modifications. In the acute pneumonia model, BALB/c mice (The Jackson Laboratory) were infected with P. aeruginosa strains suspended in a 0.05 ml inoculum. In the thermal injury model, CF-1 mice (Charles River) received a 10% total body surface area burn with a metal brand heated to 92° C. for 10 seconds. Animals were infected subcutaneously with P. aeruginosa strain 6077 at the indicated dose. For organ burden experiments, acute pneumonia was induced in mice followed by harvesting of lungs, spleens, and kidneys 24 hours post-infection for determination of CFU.
Survival effect of the Bs4-GLO bispecific antibody was evaluated in a P. aeruginosa thermal injury model against different P. aeruginosa strains. […] Animals were treated with Bs4-GLO or […] to induction of thermal injury and subcutaneous infection with P. aeruginosa strain (A) 6077 (O11-ExoU^+) or (B) 6206 (O11-ExoU^+) or (C) 6294 (06) directly under the wound.
(A) Animals were treated with Bs4-GLO or R347 (A) 4h hours or (B) 12 hours after induction of thermal injury and subcutaneous infection with P. aeruginosa strain 6077 (O11-ExoU^+) directly under the wound.

[2] = tested on: wild type PAO1, PAO1ΔpslA and PAO1ΔpslA complemented with pslA; experiment: OPK assay with PAO1 pslA mutant strains; assay type: cell-based, Pseudomonas aeruginosa; conditions: FIG. 3F-G
Protocol: This example describes the evaluation of prioritized human IgG1 antibodies to promote OPK of P. aeruginosa. […] OPK assays were performed as described in (DiGiandomenico, A., et al., Infect Immun 72, 7012-7021 (2004)), with modifications. Briefly, assays were performed in 96-well plates using 0.025 ml of each OPK component; P. aeruginosa strains; diluted baby rabbit serum; differentiated HL-60 cells; and monoclonal antibody. In some OPK assays, luminescent P. aeruginosa strains, which were constructed as described (Choi, K. H., et al., Nat Methods 2, 443-448 (2005)), were used. Luminescent OPK assays were performed as described above but with determination of relative luciferase units (RLUs) using a Perkin Elmer ENVISION Multilabel plate reader (Perkin Elmer).
This example describes identification of the target of anti-P. aeruginosa antibodies derived from phenotypic screening. Target analysis was performed to test whether the serotype independent antibodies targeted protein or carbohydrate antigens. […] Isogenic mutants were constructed in genes responsible for 0-antigen, alginate, and LPS core biosynthesis; wbpL (O-antigen-deficient); wbpL/algD (O-antigen and alginate deficient); rmlC (O-antigen-deficient and truncated outer core); and galU (O-antigen-deficient and truncated inner core). […]

[3] = tested on: P. aeruginosa strain 6077 (O11-cytotoxic); experiment: Corneal infection (ocular keratitis) model in mice; assay type: in vivo, Pseudomonas aeruginosa; conditions: C3H/HeN mice; IP, 16 hours prior to infection with 6077 1×10^6 CFU; graded at 48 h; FIG. 8H
Protocol: as §1
Cam-003 and WapR-004 efficacy was next evaluated in a P. aeruginosa corneal infection model which emphasizes the pathogens ability to attach and colonize damaged tissue. […] FIG. 8 (H): The activity of anti-Psl and anti-PcrV monoclonal antibodies V2L2 was tested in a P. aeruginosa mouse ocular keratitis model. […]

With “Cam-003: anti-Psl human IgG1 monoclonal antibody; VH SEQ ID NO:1, VL SEQ ID NO:2” as the substance, how does the “survival R347 vs. Cam-003, log-rank P” value ([1]; 5 mg/kg) read?
Its value is 0.0017.

And the “survival R347 vs. Cam-003, log-rank P” value ([1]; 15 mg/kg)?
Its value is 0.0094.

What about the “protection compared to the antibody-treated control” value ([1]; CF-1 mice) of the same substance?
The value was “significant protection at 15 and 5 mg/kg”.

And the “opsonophagocytic killing of Psl-producing vs Psl-deficient strains” value [2]?
The value was “only mediates killing of strains capable of producing Psl”.

And the “corneal pathology and CFU in total eye homogenates vs R347” value [3]?
The value was “significantly less pathology and reduced bacterial colony forming units (CFU) in total eye homogenates”.
